Columns and labels:
Hos2 histone deacetylase [1] = molecular target: T1, Hos2 histone deacetylase (Candida albicans, UniProt A0A1D8PJ17); assay: fluorogenic deacetylase assay with Boc-Lys(Ac)-AMC, % inhibition at […]; format: biochemical; details: read-out: % inhibition ± SE / 10 μM
T1 construct: full length, N-terminal hexa-histidine tag, expressed in Sf9 cells

Hos2 histone deacetylase [2] = molecular target: T1, Hos2 histone deacetylase; assay: biochemical

T1 sequence (A0A1D8PJ17 entry or part of it): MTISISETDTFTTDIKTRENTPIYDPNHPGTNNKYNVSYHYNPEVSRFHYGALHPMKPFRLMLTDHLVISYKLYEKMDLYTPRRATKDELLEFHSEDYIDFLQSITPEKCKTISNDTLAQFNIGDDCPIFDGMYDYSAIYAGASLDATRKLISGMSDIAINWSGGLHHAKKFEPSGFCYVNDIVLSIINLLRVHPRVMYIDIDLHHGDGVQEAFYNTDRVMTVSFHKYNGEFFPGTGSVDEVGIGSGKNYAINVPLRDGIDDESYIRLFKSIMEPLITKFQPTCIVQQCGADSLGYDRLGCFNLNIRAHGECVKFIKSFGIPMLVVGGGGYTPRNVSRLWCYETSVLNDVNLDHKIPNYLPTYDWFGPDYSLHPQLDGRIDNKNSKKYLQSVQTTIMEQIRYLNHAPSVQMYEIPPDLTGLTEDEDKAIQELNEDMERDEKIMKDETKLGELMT

Row | inhibition at 10 µM (Hos2 histone deacetylase [1]) [%] | SMILES | IC50 (Hos2 histone deacetylase [2]) [nM]
1 | 56.3 | Nc1ccccc1NC(=O)c1ccc(CNC(=O)OCc2cccnc2)cc1 [MS-275] | 
2 |  | CC(/C=C/C(=O)NO)=C\[C@@H](C)C(=O)c1ccc(N(C)C)cc1 [TSA] | 2.8

— publication PMC4111124, “Functional characterization of Candida albicans Hos2 histone deacetylase” (F1000Research, 2014)
